Results as given in PubChem BioAssay (NCI).
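96-well plates; 48 h exposure; 5 concentrations. Endpoints by linear interpolation between flanking doses. Not reached: highest tested concentration assigned. TGI denotes the concentration required for complete inhibition of growth.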

Experiments:
Assay in all cases: NCI anticancer screen, dose series, 48 h
A498 renal = test system: A498 renal
LOX IMVI melanoma = test system: LOX IMVI melanoma
M14 melanoma = test system: M14 melanoma
SK-MEL-5 melanoma = test system: SK-MEL-5 melanoma
RPMI-8226 leukemia = test system: RPMI-8226 leukemia
SK-MEL-28 melanoma = test system: SK-MEL-28 melanoma
UO-31 renal = test system: UO-31 renal
CAKI-1 renal = test system: CAKI-1 renal
OVCAR-3 ovarian = test system: OVCAR-3 ovarian
HT29 colon = test system: HT29 colon
UACC-257 melanoma = test system: UACC-257 melanoma
OVCAR-8 ovarian = test system: OVCAR-8 ovarian
NCI-H522 lung = test system: NCI-H522 lung
NCI-H23 lung = test system: NCI-H23 lung
HCT-15 colon = test system: HCT-15 colon
HCT-116 colon = test system: HCT-116 colon
RXF 393 renal = test system: RXF 393 renal
ACHN renal = test system: ACHN renal
SN12C renal = test system: SN12C renal
HOP-92 NSCLC = test system: HOP-92 NSCLC
SNB-75 CNS = test system: SNB-75 CNS
BT-549 breast = test system: BT-549 breast
OVCAR-4 ovarian = test system: OVCAR-4 ovarian
IGROV1 ovarian = test system: IGROV1 ovarian
SF-539 CNS = test system: SF-539 CNS
T-47D breast = test system: T-47D breast
HCC-2998 colon = test system: HCC-2998 colon
PC-3 prostate = test system: PC-3 prostate
NCI-H460 lung = test system: NCI-H460 lung
TK-10 renal = test system: TK-10 renal
A549 NSCLC = test system: A549 NSCLC
MOLT-4 leukemia = test system: MOLT-4 leukemia
U251 CNS = test system: U251 CNS
786-0 renal = test system: 786-0 renal
SK-MEL-2 melanoma = test system: SK-MEL-2 melanoma
KM12 colon = test system: KM12 colon
NCI-H226 lung = test system: NCI-H226 lung
EKVX NSCLC = test system: EKVX NSCLC
MDA-MB-231 breast = test system: MDA-MB-231 breast
MDA-N = test system: MDA-N
OVCAR-5 ovarian = test system: OVCAR-5 ovarian
K-562 leukemia = test system: K-562 leukemia
MDA-MB-435 = test system: MDA-MB-435
SNB-19 CNS = test system: SNB-19 CNS
SF-268 CNS = test system: SF-268 CNS
MCF7 breast = test system: MCF7 breast
DU-145 prostate = test system: DU-145 prostate
UACC-62 melanoma = test system: UACC-62 melanoma
COLO 205 colon = test system: COLO 205 colon
SW-620 colon = test system: SW-620 colon
SF-295 CNS = test system: SF-295 CNS
HOP-62 NSCLC = test system: HOP-62 NSCLC
SK-OV-3 ovarian = test system: SK-OV-3 ovarian
HS 578T breast = test system: HS 578T breast
MALME-3M melanoma = test system: MALME-3M melanoma
NCI/ADR-RES ovarian = test system: NCI/ADR-RES ovarian
CCRF-CEM leukemia = test system: CCRF-CEM leukemia
HL-60(TB) leukemia = test system: HL-60(TB) leukemia
SR leukemia = test system: SR leukemia

O=[N+]([O-])c1cccc(N=C2c3ccccc3CN2c2cccc([N+](=O)[O-])c2)c1
TGI (A498 renal): > 100 µM | TGI (LOX IMVI melanoma): > 100 µM | TGI (M14 melanoma): > 100 µM | TGI (SK-MEL-5 melanoma): > 100 µM | TGI (RPMI-8226 leukemia): > 100 µM | TGI (SK-MEL-28 melanoma): > 100 µM | TGI (UO-31 renal): > 100 µM | TGI (CAKI-1 renal): > 100 µM | TGI (OVCAR-3 ovarian): > 100 µM | TGI (HT29 colon): > 100 µM | TGI (UACC-257 melanoma): > 100 µM | TGI (OVCAR-8 ovarian): > 100 µM | TGI (NCI-H522 lung): > 100 µM | TGI (NCI-H23 lung): > 100 µM | TGI (HCT-15 colon): > 100 µM | TGI (HCT-116 colon): > 100 µM | TGI (RXF 393 renal): > 100 µM | TGI (ACHN renal): > 100 µM | TGI (SN12C renal): > 100 µM | TGI (HOP-92 NSCLC): > 100 µM | TGI (SNB-75 CNS): 73.5 µM | TGI (BT-549 breast): > 100 µM | TGI (OVCAR-4 ovarian): > 100 µM | TGI (IGROV1 ovarian): > 100 µM | TGI (SF-539 CNS): > 100 µM | TGI (T-47D breast): > 100 µM | TGI (HCC-2998 colon): > 100 µM | TGI (PC-3 prostate): > 100 µM | TGI (NCI-H460 lung): > 100 µM | TGI (TK-10 renal): > 100 µM | TGI (A549 NSCLC): > 100 µM | TGI (MOLT-4 leukemia): > 100 µM | TGI (U251 CNS): > 100 µM | TGI (786-0 renal): > 100 µM | TGI (SK-MEL-2 melanoma): > 100 µM | TGI (KM12 colon): > 100 µM | TGI (NCI-H226 lung): > 100 µM | TGI (EKVX NSCLC): > 100 µM | TGI (MDA-MB-231 breast): > 100 µM | TGI (MDA-N): > 100 µM | TGI (OVCAR-5 ovarian): > 100 µM | TGI (K-562 leukemia): > 100 µM | TGI (MDA-MB-435): > 100 µM | TGI (SNB-19 CNS): > 100 µM | TGI (SF-268 CNS): > 100 µM | TGI (MCF7 breast): > 100 µM | TGI (DU-145 prostate): > 100 µM | TGI (UACC-62 melanoma): > 100 µM | TGI (COLO 205 colon): > 100 µM | TGI (SW-620 colon): > 100 µM | TGI (SF-295 CNS): > 100 µM | TGI (HOP-62 NSCLC): > 100 µM | TGI (SK-OV-3 ovarian): > 100 µM | TGI (HS 578T breast): > 100 µM

CSCCC(NCc1c(O)ccc2ccc(=O)oc12)C(=O)O (stereo unspecified)
TGI (LOX IMVI melanoma): > 100 µM | TGI (M14 melanoma): > 100 µM | TGI (SK-MEL-5 melanoma): > 100 µM | TGI (RPMI-8226 leukemia): > 100 µM | TGI (SK-MEL-28 melanoma): > 100 µM | TGI (UO-31 renal): > 100 µM | TGI (CAKI-1 renal): > 100 µM | TGI (OVCAR-3 ovarian): > 100 µM | TGI (HT29 colon): > 100 µM | TGI (UACC-257 melanoma): > 100 µM | TGI (OVCAR-8 ovarian): > 100 µM | TGI (NCI-H522 lung): > 100 µM | TGI (NCI-H23 lung): > 100 µM | TGI (HCT-15 colon): > 100 µM | TGI (HCT-116 colon): > 100 µM | TGI (RXF 393 renal): > 100 µM | TGI (ACHN renal): > 100 µM | TGI (SN12C renal): > 100 µM | TGI (HOP-92 NSCLC): > 100 µM | TGI (SNB-75 CNS): > 100 µM | TGI (MALME-3M melanoma): > 100 µM | TGI (OVCAR-4 ovarian): > 100 µM | TGI (NCI/ADR-RES ovarian): > 100 µM | TGI (IGROV1 ovarian): > 100 µM | TGI (SF-539 CNS): > 100 µM | TGI (T-47D breast): > 100 µM | TGI (HCC-2998 colon): > 100 µM | TGI (PC-3 prostate): > 100 µM | TGI (NCI-H460 lung): > 100 µM | TGI (TK-10 renal): > 100 µM | TGI (A549 NSCLC): > 100 µM | TGI (MOLT-4 leukemia): > 100 µM | TGI (U251 CNS): > 100 µM | TGI (786-0 renal): > 100 µM | TGI (SK-MEL-2 melanoma): > 100 µM | TGI (KM12 colon): > 100 µM | TGI (CCRF-CEM leukemia): > 100 µM | TGI (NCI-H226 lung): > 100 µM | TGI (HL-60(TB) leukemia): > 100 µM | TGI (EKVX NSCLC): > 100 µM | TGI (MDA-MB-231 breast): > 100 µM | TGI (MDA-N): > 100 µM | TGI (OVCAR-5 ovarian): > 100 µM | TGI (K-562 leukemia): > 100 µM | TGI (MDA-MB-435): > 100 µM | TGI (SNB-19 CNS): > 100 µM | TGI (SF-268 CNS): > 100 µM | TGI (MCF7 breast): > 100 µM | TGI (DU-145 prostate): > 100 µM | TGI (UACC-62 melanoma): > 100 µM | TGI (COLO 205 colon): > 100 µM | TGI (SW-620 colon): > 100 µM | TGI (SR leukemia): > 100 µM | TGI (SF-295 CNS): > 100 µM | TGI (HOP-62 NSCLC): > 100 µM | TGI (SK-OV-3 ovarian): > 100 µM | TGI (HS 578T breast): > 100 µM
